Measured values as given in the supplement of paper PMC12350171.

Key:
[1] = test system: Yersinia enterocolitica WA-314; experiment: IC25 growth inhibition; higher = less potent
Procedure, shortened: (§1)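 Overnight monocultures grown in mGAM were moved into pre-reduced plates containing twofold drug dilutions, at a starting OD578 of 0.01 with 1% DMSO (or water). Plates were kept anaerobic and read hourly at OD578 in a plate reader, with at least three biological replicates. For each concentration, the median area under the growth curve was made monotonic, and IC25 was the lowest concentration whose median fell below a cutoff, reported as a tested interval. That cutoff was 0.75.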

Clostridium bolteae = experiment: IC25 growth inhibition; higher = less potent
Procedure, shortened: as §1

[2] = test system: Salmonella enterica typhimurium; experiment: IC25 growth inhibition; higher = less potent
Procedure, shortened: as §1

Clostridium perfringens = experiment: IC25 growth inhibition; higher = less potent
Procedure, shortened: as §1

[3] = test system: Fusobacterium nucleatum subsp. Nucleatum; experiment: IC25 growth inhibition; higher = less potent
Procedure, shortened: as §1

Shigella flexneri = experiment: IC25 growth inhibition; higher = less potent
Procedure, shortened: as §1

Eubacterium rectale = experiment: IC25 growth inhibition; higher = less potent
Procedure, shortened: as §1

[4] = test system: Clostridium saccharolyticum; experiment: IC25 growth inhibition; higher = less potent
Procedure, shortened: as §1

Parabacteroides merdae = experiment: IC25 growth inhibition; higher = less potent
Procedure, shortened: as §1

Clostridium ramosum = experiment: IC25 growth inhibition; higher = less potent
Procedure, shortened: as §1

Bacteroides uniformis = experiment: IC25 growth inhibition; higher = less potent
Procedure, shortened: as §1

Streptococcus salivarius = experiment: IC25 growth inhibition; higher = less potent
Procedure, shortened: as §1

Bacteroides fragilis NT = experiment: IC25 growth inhibition; higher = less potent
Procedure, shortened: as §1

[5] = test system: Bacteroides thetaiotaomicron; experiment: IC25 growth inhibition; higher = less potent
Procedure, shortened: as §1

Vibrio cholerae = experiment: IC25 growth inhibition; higher = less potent
Procedure, shortened: as §1

[6] = test system: Yersinia pseudotuberculosis; experiment: IC25 growth inhibition; higher = less potent
Procedure, shortened: as §1

Escherichia coli ED1a = experiment: IC25 growth inhibition; higher = less potent
Procedure, shortened: as §1

Bacteroides vulgatus = experiment: IC25 growth inhibition; higher = less potent
Procedure, shortened: as §1

Collinsella aerofaciens = experiment: IC25 growth inhibition; higher = less potent
Procedure, shortened: as §1

[7] = test system: Streptococcus parasanguinis; experiment: IC25 growth inhibition; higher = less potent
Procedure, shortened: as §1

Roseburia intestinalis = experiment: IC25 growth inhibition; higher = less potent
Procedure, shortened: as §1

Coprococcus comes = experiment: IC25 growth inhibition; higher = less potent
Procedure, shortened: as §1

Dorea formicigenerans = experiment: IC25 growth inhibition; higher = less potent
Procedure, shortened: as §1

Ruminococcus gnavus = experiment: IC25 growth inhibition; higher = less potent
Procedure, shortened: as §1

[8] = test system: Com21 synthetic gut community; experiment: community biomass OD578 after 24 h drug treatment relative to untreated (fraction of untreated control); higher = more community growth; conditions: community: Com21 (Com20 + E. coli ED1a)
Method: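 Com21 (Com20 plus E. coli ED1a) was treated with drug for 24 h under anaerobic conditions in mGAM. Community OD578 was then measured and normalised to untreated Com21; mean of 3 biological replicates.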

[9] = drug pretreatment concentration 10 µM
[10] = drug pretreatment concentration 20 µM
[11] = drug pretreatment concentration 40 µM
[12] = drug pretreatment concentration 80 µM
[13] = drug pretreatment concentration 160 µM
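Wherever IC25 growth inhibition is given: lowest concentration where monotonic median growth AUC falls below 0.75 of drug-free control.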

Row | Compound | IC25 growth inhibition [1] | IC25 growth inhibition (Clostridium bolteae) | IC25 growth inhibition [2] | IC25 growth inhibition (Clostridium perfringens) | IC25 growth inhibition [3] | IC25 growth inhibition (Shigella flexneri) | IC25 growth inhibition (Eubacterium rectale) | IC25 growth inhibition [4] | IC25 growth inhibition (Parabacteroides merdae) | IC25 growth inhibition (Clostridium ramosum) | IC25 growth inhibition (Bacteroides uniformis) | IC25 growth inhibition (Streptococcus salivarius) | IC25 growth inhibition (Bacteroides fragilis NT) | IC25 growth inhibition [5] | IC25 growth inhibition (Vibrio cholerae) | IC25 growth inhibition [6] | IC25 growth inhibition (Escherichia coli ED1a) | IC25 growth inhibition (Bacteroides vulgatus) | IC25 growth inhibition (Collinsella aerofaciens) | IC25 growth inhibition [7] | IC25 growth inhibition (Roseburia intestinalis) | IC25 growth inhibition (Coprococcus comes) | IC25 growth inhibition (Dorea formicigenerans) | IC25 growth inhibition (Ruminococcus gnavus) | community biomass OD578 [8, 9] | community biomass OD578 [8, 10] | community biomass OD578 [8, 11] | community biomass OD578 [8, 12] | community biomass OD578 [8, 13] | community biomass OD578 ([8]; drug pretreatment concentration 2.5 µM) | community biomass OD578 ([8]; drug pretreatment concentration 5 µM)
1 | CCCc1nc2c(C)cc(-c3nc4ccccc4n3C)cc2n1Cc1ccc(-c2ccccc2C(=O)O)cc1 [Telmisartan] | > 40 µM | > 80 µM | > 160 µM | > 160 µM | > 80 µM | > 40 µM | > 80 µM | > 80 µM | > 160 µM | ≤ 40 µM | > 160 µM | ≤ 40 µM | > 160 µM | > 160 µM | > 40 µM | > 40 µM | > 160 µM | > 160 µM | > 160 µM | > 160 µM | > 160 µM | > 80 µM | > 80 µM | > 160 µM | 0.994 | 0.966 | 0.932 | 0.892 | 0.956 | – | –
2 | CC(C)(C)c1ccc(C(O)CCCN2CCC(C(O)(c3ccccc3)c3ccccc3)CC2)cc1 (stereo not drawn) [Terfenadine] | > 40 µM | ≤ 80 µM | > 160 µM | ≤ 80 µM | ≤ 80 µM | > 80 µM | ≤ 80 µM | ≤ 40 µM | ≤ 80 µM | > 80 µM | ≤ 80 µM | ≤ 80 µM | ≤ 80 µM | ≤ 80 µM | > 40 µM | > 80 µM | > 160 µM | ≤ 40 µM | ≤ 20 µM | ≤ 80 µM | ≤ 10 µM | ≤ 80 µM | ≤ 20 µM | ≤ 20 µM | 0.953 | 0.96 | 0.863 | 0.542 | 0.35 | – | –
3 | Nc1nc(=S)c2ncn([C@@H]3O[C@H](CO)[C@@H](O)[C@H]3O)c2[nH]1 [Thioguanosine] | > 40 µM | > 40 µM | > 40 µM | > 40 µM | > 40 µM | ≤ 2.5 µM | > 40 µM | > 40 µM | > 40 µM | > 40 µM | > 40 µM | > 40 µM | > 40 µM | > 40 µM | > 40 µM | ≤ 20 µM | ≤ 2.5 µM | > 40 µM | > 40 µM | > 40 µM | > 40 µM | > 40 µM | > 40 µM | > 40 µM | 1.02 | 1.05 | 1.01 | – | – | 1.01 | 1.01
4 | NC[C@H]1O[C@H](O[C@H]2[C@H](O)[C@@H](O[C@H]3O[C@H](CO)[C@@H](O)[C@H](N)[C@H]3O)[C@H](N)C[C@@H]2N)[C@H](N)C[C@@H]1O [Tobramycin] | ≤ 40 µM | > 160 µM | ≤ 160 µM | ≤ 20 µM | ≤ 80 µM | ≤ 40 µM | ≤ 20 µM | ≤ 10 µM | > 160 µM | ≤ 160 µM | > 160 µM | ≤ 5 µM | > 160 µM | > 160 µM | ≤ 160 µM | ≤ 20 µM | ≤ 20 µM | > 160 µM | ≤ 10 µM | ≤ 5 µM | ≤ 10 µM | ≤ 40 µM | > 160 µM | ≤ 40 µM | 1.01 | 0.969 | 0.972 | 0.983 | 0.992 | – | –
5 | Cc1c(Cl)cccc1Nc1ccccc1C(=O)O [Tolfenamic acid] | > 160 µM | > 160 µM | > 160 µM | ≤ 160 µM | ≤ 40 µM | > 160 µM | > 160 µM | ≤ 160 µM | ≤ 40 µM | ≤ 80 µM | ≤ 160 µM | ≤ 160 µM | ≤ 80 µM | ≤ 160 µM | ≤ 80 µM | > 160 µM | > 160 µM | ≤ 80 µM | > 160 µM | > 160 µM | > 160 µM | ≤ 80 µM | > 160 µM | ≤ 80 µM | 0.991 | 0.971 | 0.962 | 0.923 | 0.864 | – | –
6 | CCOC1O[C@H]([C@@H](COCc2ccccc2)OCc2ccccc2)[C@H](OCc2ccccc2)[C@H]1O (stereo partly drawn) [Tribenoside] | ≤ 160 µM | > 80 µM | > 40 µM | > 80 µM | > 40 µM | > 40 µM | > 40 µM | > 80 µM | > 40 µM | > 40 µM | > 40 µM | > 80 µM | > 40 µM | > 40 µM | > 40 µM | > 40 µM | > 20 µM | > 40 µM | > 40 µM | > 40 µM | > 80 µM | > 40 µM | > 20 µM | > 40 µM | 0.995 | 0.955 | 0.976 | 0.945 | 0.947 | – | –
7 | COc1cc(C(=O)NS(=O)(=O)c2ccccc2C)ccc1Cc1cn(C)c2ccc(NC(=O)OC3CCCC3)cc12 [Zafirlukast] | > 80 µM | ≤ 80 µM | > 80 µM | ≤ 10 µM | > 80 µM | > 160 µM | ≤ 80 µM | ≤ 80 µM | ≤ 40 µM | ≤ 10 µM | ≤ 80 µM | ≤ 10 µM | ≤ 80 µM | ≤ 80 µM | > 80 µM | > 80 µM | > 160 µM | ≤ 40 µM | ≤ 80 µM | ≤ 20 µM | ≤ 20 µM | ≤ 20 µM | ≤ 40 µM | ≤ 20 µM | 0.904 | 0.876 | 0.825 | 0.81 | 0.841 | – | –
